Like-named read-outs stand apart in the source and are kept apart here.
Columns and labels:
[1] = in vitro; details: human, Caco-2, A-to-B Papp (cell batch quality control)
[2] = test system: pseudovirus NL4-3ΔEnv-NanoLuc/SARS-CoV; experiment: microbe, parasite or virus in culture; assay type: cell-based; details: Severe acute respiratory syndrome coronavirus, HT-1080
[3] = test system: pseudovirus NL4-3ΔEnv-NanoLuc/MERS-CoV; experiment: microbe, parasite or virus in culture; assay type: cell-based; details: Middle East respiratory syndrome-related coronavirus, MRC5
[4] = molecular target: β-lactamase; assay type: biochemical
[5] = molecular target: malate dehydrogenase (MDH); assay type: biochemical
[6] = test system: SARS-CoV-2 (US_WA-1/2020); assay type: cell-based
[7] = test system: NL4-3ΔEnv-NanoLuc/SARS-CoV-2; experiment: organism not typed; assay type: cell-based; details: for IC50: read-out: IC50 (range over the three cell lines)
[8] = test system: pseudovirus NL4-3ΔEnv-NanoLuc/SARS-CoV; experiment: microbe, parasite or virus in culture; assay type: cell-based; details: Severe acute respiratory syndrome coronavirus, A549-ACE2
[9] = test system: control pseudovirus NL4-3.Luc.R-E-/A-MLV; experiment: Control pseudovirus A-MLV assay in 293T/ACE2 cells; assay type: cell-based, amphotropic murine leukemia virus (A-MLV); details: NL43, 293T/ACE2
[10] = test system: pseudovirus NL4-3ΔEnv-NanoLuc/SARS-CoV-2; experiment: SARS-CoV-2 pseudovirus assay with pre-treated 293T/ACE2 cells; assay type: cell-based; details: 293T/ACE2 cells pre-treated with compound 30 min before infection
[11] = molecular target: SARS-CoV-2 spike S1 subunit protein (Severe acute respiratory syndrome coronavirus 2, UniProt P0DTC2); assay type: binding
[12] = test system: pseudovirus NL4-3ΔEnv-NanoLuc/MERS-CoV; experiment: microbe, parasite or virus in culture; assay type: cell-based; details: Middle East respiratory syndrome-related coronavirus, Huh-7
[13] = rat, in vivo
[14] = test system: pseudovirus NL4-3ΔEnv-NanoLuc/SARS-CoV-2; experiment: organism not typed; assay type: cell-based; details: HT-1080; n=3
[15] = test system: Trypsin; assay type: biochemical
[16] = in vivo; details: female, Sprague Dawley, rat; for MRT inf: MRT0-inf_obs
[17] = test system: pseudovirus NL4-3ΔEnv-NanoLuc/SARS-CoV-2; experiment: organism not typed; assay type: cell-based; details: A549-ACE2; n=3
[18] = test system: pseudovirus NL4-3ΔEnv-NanoLuc/SARS-CoV; experiment: microbe, parasite or virus in culture; assay type: cell-based; details: Severe acute respiratory syndrome coronavirus, 293T/ACE2; n=3
[19] = test system: pseudovirus NL4-3ΔEnv-NanoLuc/SARS-CoV-2; experiment: organism not typed; assay type: cell-based; details: 293T/ACE2
[20] = test system: MERS-CoV pseudovirus; experiment: microbe, parasite or virus in culture; assay type: cell-based
[21] = female, Sprague Dawley, iv, 5 mg/kg

C[C@H]1O[C@@H](O[C@H]2[C@@H](O)C[C@H](O[C@H]3[C@@H](O)C[C@H](O[C@H]4CC[C@@]5(C)[C@H](CC[C@@H]6[C@@H]5C[C@@H](O)[C@]5(C)[C@@H](C7=CC(=O)OC7)CC[C@]65O)C4)O[C@@H]3C)O[C@@H]2C)C[C@H](O)[C@@H]1O [Digoxin, reference compound]
Papp A→B [1]: 0.34 ×10⁻⁶ cm/s

O=C(O)c1cccc(-c2ccc(/C=C3\SC(=S)N(CCc4ccccc4)C3=O)o2)c1 [NBCoV2]
IC50 [2]: 19.3 ± 1.1 nM
IC50 [3]: 77 nM
IC50 [4]: > 2000 nM
IC50 [5]: > 2000 nM
IC100 [6]: > 10 µM
IC100 (range of IC100 values detected in the three cell lines) [7]: 0.3 to 1 µM
IC50 [7]: 22.8 to 58 nM
IC50 [8]: 111 ± 9 nM
IC50 [9]: 783 ± 76 nM
IC50 [10]: > 2000 nM
kd [11]: 0.0251 s⁻¹
IC50 [12]: 112 ± 7 nM
CLobs [13, 21]: 0.00027 (mg/kg)/(ng/mL)/h
Vss_obs [13, 21]: 0.0014 (mg/kg)/(ng/mL)
AUC0-t ([13]; iv, 5 mg/kg): 18,074.45 ng/mL ∗ h
AUC0-t ([13]; po, 10 mg/kg): 318.78 ng/mL ∗ h
Vz/F_obs ([13]; po, 10 mg/kg): 0.1759 (mg/kg)/(ng/mL)
IC50 [14]: 25.3 ± 0.6 nM
IC50 [15]: > 2000 nM
bioavailability ([16]; F% (bioavailability)): 0.9%
C0 ([16]; iv, 5 mg/kg): 1710 ng/mL
Tmax ([16]; iv, 5 mg/kg): 2 h
Cmax ([16]; iv, 5 mg/kg): 2220 ng/mL
MRT inf ([16]; iv, 5 mg/kg): 5.09 h
half-life ([16]; iv, 5 mg/kg, t1/2): 3.52 h
Tmax ([16]; po, 10 mg/kg): 4 h
Cmax ([16]; po, 10 mg/kg): 30.1 ng/mL
MRT inf ([16]; po, 10 mg/kg): 7.28 h
half-life ([16]; po, 10 mg/kg, t1/2): 3.96 h
half-life ([16]; t1/2 (range PO and IV)): 3.5 to 3.9 h
IC50 [17]: 58 ± 1.7 nM

O=C(O)c1cc(-c2ccc(/C=C3\SC(=S)N(CCc4ccccc4)C3=O)o2)ccc1F [NBCoV3]
IC50 ([2]; n=3, read-out: IC50): 25.7 ± 0.6 nM
IC50 ([3]; n=3, read-out: IC50): 123 ± 17 nM
IC50 [4]: > 2000 nM
IC50 [18]: 17.8 ± 4 nM
IC50 [5]: > 2000 nM
IC100 [6]: > 10 µM
IC100 (range of IC100 values detected in the three cell lines) [7]: 0.5 to 1.2 µM
IC50 [7]: 60.1 to 120 nM
IC50 ([8]; n=3, read-out: IC50): 157 ± 12.5 nM
IC50 [9]: 960 ± 57 nM
IC50 [10]: > 2000 nM
IC50 ([12]; n=3, read-out: IC50): 158 ± 14 nM
IC50 [14]: 64 ± 18 nM
IC50 [15]: > 2000 nM
IC50 [17]: 120 ± 5 nM
IC50 [19]: 60.1 ± 8.5 nM

Cc1ccc(-c2ccc(/C=C3\SC(=S)N(CCc4ccccc4)C3=O)o2)cc1C(=O)O [NBCoV4]
IC50 ([2]; n=3, read-out: IC50): 54 ± 3.5 nM
IC50 ([3]; n=3, read-out: IC50): 80 ± 18 nM
IC50 [4]: > 2000 nM
IC50 [18]: 80 ± 2 nM
IC50 [5]: > 2000 nM
IC100 [6]: > 10 µM
IC100 (range of IC100 values detected in the three cell lines) [7]: 0.3 to 1 µM
IC50 [7]: 26 to 73 nM
IC50 ([8]; n=3, read-out: IC50): 100 ± 13 nM
IC50 [9]: 1620 ± 115 nM
IC50 [10]: > 2000 nM
IC50 ([12]; n=3, read-out: IC50): 131 ± 6 nM
IC50 [14]: 47.7 ± 16 nM
IC50 [15]: > 2000 nM
IC50 [17]: 73 ± 4.1 nM
IC50 [19]: 26 ± 1 nM

Cc1c(C(=O)O)cccc1-c1ccc(/C=C2\SC(=S)N(CCc3ccccc3)C2=O)o1 [NBCoV5]
IC50 ([2]; n=3, read-out: IC50): 1760 ± 330 nM
IC50 ([3]; n=3, read-out: IC50): > 2000 nM
IC50 [4]: > 2000 nM
MERS-CoV inhibitory activity [20]: no MERS-CoV inhibitory activity
IC50 [18]: 1850 ± 179 nM
IC50 [5]: > 2000 nM
IC100 [6]: > 10 µM
IC100 (range of IC100 values detected in the three cell lines) [7]: >2 µM
IC50 ([8]; n=3, read-out: IC50): > 2000 nM
IC50 [9]: > 2000 nM
IC50 [10]: > 2000 nM
IC50 ([12]; n=3, read-out: IC50): > 2000 nM
IC50 [14]: 1050 ± 252 nM
IC50 [15]: > 2000 nM
IC50 [17]: > 2000 nM
IC50 [19]: 1200 ± 240 nM

CCc1ccc(-c2ccc(/C=C3\SC(=S)N(CCc4ccccc4)C3=O)o2)cc1C(=O)O [NBCoV6]
IC50 ([2]; n=3, read-out: IC50): 133 ± 9.5 nM
IC50 ([3]; n=3, read-out: IC50): 945 ± 77 nM
IC50 [18]: 175 ± 7 nM
IC100 [6]: > 10 µM
IC100 (range of IC100 values detected in the three cell lines) [7]: 1 to 3 µM
IC50 ([8]; n=3, read-out: IC50): 867 ± 62 nM
IC50 [9]: > 2000 nM
IC50 [10]: > 2000 nM
IC50 ([12]; n=3, read-out: IC50): 569 ± 31 nM
IC50 [14]: 245 ± 5 nM
IC50 [17]: 613 ± 72 nM
IC50 [19]: 185 ± 5.8 nM

O=C(O)c1cccc(-c2ccc(/C=C3\SC(=S)N(CCc4ccccc4)C3=O)o2)c1F [NBCoV7]
IC50 ([2]; n=3, read-out: IC50): 52 ± 8.9 nM
IC50 ([3]; n=3, read-out: IC50): 927 ± 63.5 nM
IC50 [18]: 111 ± 1.7 nM
IC100 [6]: > 10 µM
IC100 (range of IC100 values detected in the three cell lines) [7]: 1 to 3 µM
IC50 ([8]; n=3, read-out: IC50): 271 ± 76 nM
IC50 [9]: > 2000 nM
IC50 [10]: > 2000 nM
IC50 ([12]; n=3, read-out: IC50): 933 ± 153 nM
IC50 [14]: 290 ± 57 nM
IC50 [17]: 416 ± 25 nM
IC50 [19]: 298 ± 60 nM

O=C(O)c1cc(-c2ccc(/C=C3\SC(=S)N(CCc4ccccc4)C3=O)o2)ccc1Br [NBCoV8]
IC50 ([2]; n=3, read-out: IC50): 225 ± 26 nM
IC50 ([3]; n=3, read-out: IC50): 559 ± 66 nM
IC50 [18]: 128 ± 6.7 nM
IC100 [6]: > 10 µM
IC100 (range of IC100 values detected in the three cell lines) [7]: 1 to 2.5 µM
IC50 ([8]; n=3, read-out: IC50): 700 ± 70 nM
IC50 [9]: > 2000 nM
IC50 [10]: > 2000 nM
IC50 ([12]; n=3, read-out: IC50): 509 ± 43 nM
IC50 [14]: 94 ± 9 nM
IC50 [17]: 254 ± 27 nM
IC50 [19]: 65.8 ± 6.2 nM

Source: paper PMC8780828 (Viruses, 2021)
